Values joined by “and” are separate entries in the source; they are usually repeats but may differ in a detail not shown here. Identical values can stand only once.

From patent US20040234527A1, “Peptides for use as translocation factors” (priority 2001, published 2004) come the findings set out here.

The subject of one assay is Hela cells. Nature of the assay: β-Galactosidase activity recovered from cell extracts after lipofectin delivery or translocation (4 hours). The class given is cell-based. The procedure:
(§1) The quantitative measurement of translocation was carried out by reading the activity of a β-Galactosidase enzyme that was included as part of a fusion protein with the translocation agents. When provided with the appropriate galactoside substrate, the enzyme deglycosylates the substrate leading to the accumulation of dioxetane. During a following incubation in a different buffer, the dioxetane becomes deprotonated and decomposes with emission of light (425 nm) that can be read using a luminometer. This system, therefore, provided a sensitive means of detecting the amount of the β-Galactosidase present in the samples, and ultimately, the amount of fusion protein delivered into the cells.
The experiments were carried out using 8-well chamber slides. 3×10^4 Hela cells were seeded into each well, suplemented with 400 μl RPMI+10% FCS medium and incubated overnight at 37° C. and 5% CO2. The following day, the appropriate dilutions of protein were made into RPMI medium and added to the wells. Both lipofectin delivery and translocation experiments were carried out for 4 hours.
The experiments were carried out on two different days: the first day a negative control β-Galactosidase and the H1.4B-Bgal were tested, and the second day the antennapedia fusion (Antp-βgal) was tested. A lipofectin delivery of β-Galactosidase, provided by Roche, was performed on both days as positive control for delivery into the cells.
(§2) It was decided to start with the amount of each that gave a value close to 6×10^7 rlu, as this is the limit of the equipment's capacity. From that value, three consecutive ⅕ fold dilutions were made in each case.
(§3) Therefore, the original activity of the different proteins was also measured in parallel to the activity recovered after translocation, in order to make sure that all the proteins were standardised to an original maximum activity of around 6×10^7 rlu.
The results after translocation were obtained by reading the β-Galactosidase recovered from the cell extracts and are shown in Tables 6 and 7. […] In any case, the values for the biggest amounts of β-Galactosidase protein are clearly lower than those obtained from the delivery systems.

Assay [1] is described as follows: β-Galactosidase activity of the protein constructs before delivery (luminometer). Conditions: 80 ng protein; Table 6 (first day). Type of assay: biochemical. As to the method: as §1, §2, §3

Regarding “β-Galactosidase: β-Galactosidase enzyme without translocation agent, negative control”, the Activity after transfection in the assay with Hela cells (640 pg protein, Table 6 (first day)) is 25.076 rlu and 28.710 rlu; with Hela cells (3.2 ng protein, Table 6 (first day)), 29.527 rlu and 35.227 rlu; in the assay on Hela cells (15 ng protein, Table 6 (first day)) it was 56.941 rlu; with Hela cells (16 ng protein, Table 6 (first day)), 55.164 rlu; in the assay with Hela cells (80 ng protein, Table 6 (first day)) it was 242.200 rlu and 298.589 rlu. For the same substance, the Protein activity entry in assay [1] is listed as “overload”.

On to “β-Gal positive control (Roche): β-Galactosidase provided by Roche, delivered with lipofectin reagent as positive control for delivery into the cells”, for which the Activity after transfection in the assay with Hela cells (1.6 ng protein, Table 6 (first day)) is 50.353 rlu and 47.212 rlu; in the assay with Hela cells (1.6 ng protein, Table 7 (second day)), 40.121 rlu and 33.578 rlu; in the assay on Hela cells (8 ng protein, Table 6 (first day)), 140.342 rlu and 162.319 rlu; in the assay with Hela cells (8 ng protein, Table 7 (second day)), 164.745 rlu and 157.913 rlu; with Hela cells (40 ng protein, Table 6 (first day)), 635.228 rlu and 675.640 rlu; in the assay on Hela cells (40 ng protein, Table 7 (second day)), 715.773 rlu and 744.405 rlu.
